Data as given in ChEMBL document CHEMBL5724696, “Autophagy assay results for EUbOPEN Chemogenomics Library” (2024).
Values joined by “and” are separate entries in the source; they are usually repeats but may differ in a detail not shown here. Equal values may be shown once.

Experiments:
Format in all cases: functional, Homo sapiens
[1] = test system: TERT-RPE1; assay: (§1) Here: values are normalized to the negative (DMSO; defined as 0% autophagy induction) and positive (250nM Torin1; mTOR inhibitor; defined as maximal inducer of autophagy = 100%) control compounds and represented as % of autophagy induction. […] The impact of autophagy induction on cells is complex and depends on the affected target. As such, the magnitude of a phenotype may not be equally mirrored in the %-value of autophagy induction and vice versa. The dynamics of the induction may indicate the mode of activation: e.g. activation via phosphorylation or a signaling cascade may occur fast, while activation via transcription factors may take considerably longer. […] Of note, treatment concentrations may be sub-optimal for specific compounds, leading to false negative annotations.; conditions: Culturing Media DMEM/F12 (1:1), 1 % Penicillin/Streptomycin, 10% Fetal bovin serum Add-On: No, Screening Media Control DMEM/F12 (1:1), Screening Media Samples DMEM/F12 (1:1)
[2] = test system: U2OS; assay: as §1; conditions: Culturing Media DMEM, 1 % Penicillin/Streptomycin, 10% Fetal bovin serum Add-On: No, Screening Media Control DMEM, Screening Media Samples DMEM
[3] = test system: U2OS; assay: as §1; conditions: Culturing Media DMEM, 1 % Penicillin/Streptomycin, 10% Fetal bovin serum Add-On: No, Screening Media Control DMEM, Screening Media Samples DMEM; remark: listed apart in the source
[4] = Compound Concentration 0.5 uM, Timepoint 12 hours
[5] = Compound Concentration 0.5 uM, Timepoint 24 hours
[6] = Compound Concentration 0.5 uM, Timepoint 36 hours
[7] = Compound Concentration 0.5 uM, Timepoint 60 hours
[8] = Compound Concentration 2 uM, Timepoint 12 hours
[9] = Compound Concentration 2 uM, Timepoint 24 hours
[10] = Compound Concentration 2 uM, Timepoint 36 hours
[11] = Compound Concentration 2 uM, Timepoint 60 hours
[12] = Compound Concentration 10 uM, Timepoint 12 hours
[13] = Compound Concentration 10 uM, Timepoint 24 hours
[14] = Compound Concentration 10 uM, Timepoint 36 hours
[15] = Compound Concentration 10 uM, Timepoint 60 hours

COc1ccc(CNC(=O)c2cc(-c3cncc(Cl)c3)cnc2-c2ccccn2)nc1OC [MK-1064]
autophagy induction ([1]; Compound Concentration 0.5 uM, Timepoint 12 hours, 12 h, 0.5 µM): -1.649% and -1.281%
autophagy induction ([1]; Compound Concentration 0.5 uM, Timepoint 24 hours, 24 h, 0.5 µM): -0.5797% and -3.213%
autophagy induction ([1]; Compound Concentration 0.5 uM, Timepoint 36 hours, 36 h, 0.5 µM): -3.034% and -3.261%
autophagy induction ([1]; Compound Concentration 0.5 uM, Timepoint 60 hours, 60 h, 0.5 µM): -3.035% and -4.321%
autophagy induction ([1]; Compound Concentration 2 uM, Timepoint 12 hours, 12 h, 2 µM): 3.536% and 7.073%
autophagy induction ([1]; Compound Concentration 2 uM, Timepoint 24 hours, 24 h, 2 µM): -0.496% and 6.728%
autophagy induction ([1]; Compound Concentration 2 uM, Timepoint 36 hours, 36 h, 2 µM): -2.12% and 5.645%
autophagy induction ([1]; Compound Concentration 2 uM, Timepoint 60 hours, 60 h, 2 µM): -0.3513% and 7.579%
autophagy induction ([1]; Compound Concentration 10 uM, Timepoint 12 hours, 12 h, 10 µM): 0.9286% and 0.4822%
autophagy induction ([1]; Compound Concentration 10 uM, Timepoint 24 hours, 24 h, 10 µM): 1.419% and 1.256%
autophagy induction ([1]; Compound Concentration 10 uM, Timepoint 36 hours, 36 h, 10 µM): 0.4472% and 1.634%
autophagy induction ([1]; Compound Concentration 10 uM, Timepoint 60 hours, 60 h, 10 µM): 0.346% and 3.096%
autophagy induction [2, 4]: 6.6807%
autophagy induction [2, 5]: 0.4544%
autophagy induction [2, 6]: -59.909%
autophagy induction [2, 7]: -3.175%
autophagy induction [2, 8]: 5.723%
autophagy induction [2, 9]: -2.067%
autophagy induction [2, 10]: 2463.06%
autophagy induction [2, 11]: -2.86%
autophagy induction [2, 12]: 2.927%
autophagy induction [2, 13]: -3.704%
autophagy induction [2, 14]: 1020.2%
autophagy induction [2, 15]: -2.212%
autophagy induction [3, 4]: 12.3622%
autophagy induction [3, 5]: 4.385%
autophagy induction [3, 6]: 3.479%
autophagy induction [3, 7]: -7.04%
autophagy induction [3, 8]: 9.573%
autophagy induction [3, 9]: 2.106%
autophagy induction [3, 10]: 1.004%
autophagy induction [3, 11]: 0.7274%
autophagy induction [3, 12]: 0.3207%
autophagy induction [3, 13]: -2.025%
autophagy induction [3, 14]: -1.481%
autophagy induction [3, 15]: 2.712%
